Laboratory results from publication PMC9550789, “Identification and biochemical characterization of a novel N-acetylglucosamine kinase in Saccharomyces cerevisiae” (Scientific Reports, 2022).

Assays:
Hxk2 = target: T1, Hxk2 (Saccharomyces cerevisiae, UniProt P04807); assay: phosphorylation of glucose; format: biochemical; conditions: sugar phosphorylation with ATP; details in supplement
T1 sequence (P04807 2-486): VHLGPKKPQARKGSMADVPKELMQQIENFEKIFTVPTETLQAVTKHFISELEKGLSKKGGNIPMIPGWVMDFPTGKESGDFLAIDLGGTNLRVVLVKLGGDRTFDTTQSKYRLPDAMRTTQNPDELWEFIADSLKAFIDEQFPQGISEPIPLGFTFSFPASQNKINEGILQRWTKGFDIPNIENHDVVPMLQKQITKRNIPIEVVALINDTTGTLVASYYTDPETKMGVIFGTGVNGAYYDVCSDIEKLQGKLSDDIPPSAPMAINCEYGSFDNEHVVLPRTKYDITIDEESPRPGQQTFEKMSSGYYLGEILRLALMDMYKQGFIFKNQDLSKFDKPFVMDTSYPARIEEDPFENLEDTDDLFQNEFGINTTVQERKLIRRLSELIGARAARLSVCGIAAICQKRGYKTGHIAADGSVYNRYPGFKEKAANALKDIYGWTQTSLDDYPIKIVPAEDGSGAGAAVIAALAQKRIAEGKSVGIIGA

Glk1 = target: T2, Glk1 (Saccharomyces cerevisiae, UniProt P17709); assay: phosphorylation of glucose; format: biochemical; conditions: sugar phosphorylation with ATP; details in supplement
T2 sequence (P17709 2-500): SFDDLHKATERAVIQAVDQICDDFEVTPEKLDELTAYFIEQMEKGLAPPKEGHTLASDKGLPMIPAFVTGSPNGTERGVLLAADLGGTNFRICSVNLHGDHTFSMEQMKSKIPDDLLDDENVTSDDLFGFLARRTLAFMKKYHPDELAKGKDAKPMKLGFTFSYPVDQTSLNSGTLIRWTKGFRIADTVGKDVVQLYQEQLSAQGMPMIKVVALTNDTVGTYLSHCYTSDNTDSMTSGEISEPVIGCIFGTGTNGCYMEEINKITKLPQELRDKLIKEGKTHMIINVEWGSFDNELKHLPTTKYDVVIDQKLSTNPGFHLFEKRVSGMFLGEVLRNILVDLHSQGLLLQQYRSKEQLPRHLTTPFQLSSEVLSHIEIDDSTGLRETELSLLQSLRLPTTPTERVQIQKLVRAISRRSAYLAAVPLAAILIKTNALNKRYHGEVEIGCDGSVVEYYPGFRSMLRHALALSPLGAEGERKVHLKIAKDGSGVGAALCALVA

Emi2 = target: T3, Emi2 (Saccharomyces cerevisiae, UniProt Q04409); assay: phosphorylation of glucose; format: biochemical; conditions: sugar phosphorylation with ATP; details in supplement
T3 sequence (Q04409 2-500): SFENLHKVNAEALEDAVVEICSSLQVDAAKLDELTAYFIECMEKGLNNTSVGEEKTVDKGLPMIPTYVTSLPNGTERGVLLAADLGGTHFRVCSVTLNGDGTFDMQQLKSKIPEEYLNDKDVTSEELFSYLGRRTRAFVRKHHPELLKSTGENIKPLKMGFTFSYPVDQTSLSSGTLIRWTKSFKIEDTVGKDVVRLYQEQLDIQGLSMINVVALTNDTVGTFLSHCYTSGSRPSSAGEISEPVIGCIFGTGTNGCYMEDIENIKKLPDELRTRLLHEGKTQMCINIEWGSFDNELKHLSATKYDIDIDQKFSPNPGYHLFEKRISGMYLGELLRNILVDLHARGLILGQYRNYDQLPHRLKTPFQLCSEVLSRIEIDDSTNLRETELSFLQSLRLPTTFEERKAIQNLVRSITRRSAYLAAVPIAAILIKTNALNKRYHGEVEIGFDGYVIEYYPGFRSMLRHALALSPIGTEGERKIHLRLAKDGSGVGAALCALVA

Hxk1 = target: T4, Hxk1 (Saccharomyces cerevisiae, UniProt P04806); assay: phosphorylation of glucose; format: biochemical; conditions: sugar phosphorylation with ATP; details in supplement
T4 sequence (P04806 1-485): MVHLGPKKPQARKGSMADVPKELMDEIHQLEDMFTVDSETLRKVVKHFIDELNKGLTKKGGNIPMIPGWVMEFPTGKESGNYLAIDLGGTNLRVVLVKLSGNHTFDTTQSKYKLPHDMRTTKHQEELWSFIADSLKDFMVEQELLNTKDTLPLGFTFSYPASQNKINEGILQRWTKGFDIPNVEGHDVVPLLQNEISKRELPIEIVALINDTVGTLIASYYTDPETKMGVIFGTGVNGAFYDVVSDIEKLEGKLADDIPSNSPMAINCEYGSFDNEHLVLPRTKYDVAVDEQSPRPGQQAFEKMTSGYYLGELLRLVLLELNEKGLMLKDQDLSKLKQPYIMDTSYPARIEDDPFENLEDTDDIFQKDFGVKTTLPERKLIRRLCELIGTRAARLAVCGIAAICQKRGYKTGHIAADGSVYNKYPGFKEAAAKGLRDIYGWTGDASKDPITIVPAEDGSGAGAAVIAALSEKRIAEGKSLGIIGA

[1] = substrate: Nc1ncnc2c1ncn2[C@@H]1O[C@H](COP(=O)(O)OP(=O)(O)OP(=O)(O)O)[C@@H](O)[C@H]1O; assay: pyruvate kinase / lactate dehydrogenase coupled assay, ADP formation; format: biochemical, Saccharomyces cerevisiae; conditions: GlcNAc as sugar substrate (concentration not given)

`OC[C@H]1OC(O)[C@H](O)[C@@H](O)[C@@H]1O` (stereo partly drawn) [glucose] was tested, and the phosphorylation of glucose (Hxk2) was “all these hexokinases clearly exhibited the activity for Glc”, the phosphorylation of glucose (Glk1) was “all these hexokinases clearly exhibited the activity for Glc” and the phosphorylation of glucose (Emi2) was “all these hexokinases clearly exhibited the activity for Glc”. For the same molecule, the phosphorylation of glucose (Hxk1) was “all these hexokinases clearly exhibited the activity for Glc”.

B1: Ngk1 (YLR446Wp) (Saccharomyces cerevisiae S288C) (protein)
chain: MTIESTLARELESLILPADSIVNVVDQFQEELLSRLQTNTISMLPQCLVPDKRSRWNPEDKILTIDFGGTRLKFAIISLPQIVIEYNDAFELTYNIVDSNFFNQIIYTICTRLAANGYIKKKNESSEASKFFVSVTFSFPLNPEGEVVAMGKGFVMTDTLQGSTVKQLIQSSFHRIISENIEEFFCTMNVCHVINDAIAVSLTSKFICENDSISLIIGTGTNACFEVPYGYLPPFKRDALRETLPSSYNKETLNFKHVLINSEIGFIGKNVIALQPFDIHGAISYEMPLECVTSGKWLPLSLKNILLQYNIIPKNFPVEFNGELVCQLAEDCTNAWFENEHYALICQIARLLIKRAAFYVAAIVQAIDIITGCKNYNFIHIGYVGSFLHNSNFYREQIKYYSSIHIKLQFLNHSNLLGAAIATYLNKSDNQVQ
notes: full-length ORF, 433 residues, about 50 kDa predicted, N-terminal His6-tag (pCold II), E. coli BL21 (DE3), HisTrap purified; tag removal not mentioned
B1 gave a Km [1] of 1200 µM and a kcat [1] of 3.4 s⁻¹.
